Measured values taken from patent US9173912B2 (priority 2008, dated 2015).
≈ marks a conversion by molar mass, not a printed value.

Columns and labels:
[1] = test system: herpes simplex viruses type 1 (HSV-1); assay: Virucidal activity: viral suspension exposed to extract, then infectiousness in cells measured; assay type: cell-based; details: Herpes Simplex Virus I
Protocol: (§1) In addition, a quite universal usability of the invented extract on viral diseases could be shown with herpes simplex viruses type 1 (HSV-1):
In order to define the virucidal activity, a viral suspension is exposed to the extract and then the infectiousness of viruses in the cells is measured. Ethanol is used for positive controls.

[2] = test system: herpes simplex viruses type 1 (HSV-1); assay: Virustatic activity: supernatant of infected human cells after inoculation with extract; assay type: cell-based
Source text: as §1
The definition of virustatic activity is then identified via the supernatant of infected human cells after inoculation with extract. Aciclovir is the accepted positive control.

[3] = Inactivation of superoxide anions after stimulation with PMA (colour reduction); details: test concentration 200 μg/ml, versus untreated control (0% inactivation)
Protocol: The concentration of oxygen radicals (superoxide anions) is regarded as measure for oxidative stress in organic tissues. By means of quantifying superoxide anions with a color reduction after stimulating with phorbol-12-myristat-13-acetate (PMA), the following antioxidative capacities have been recorded (test concentration 200 μg/ml) in comparison to an untreated control (0% inactivation): […]

[4] = biological target: neuraminidase of Clostridium perfringens; details: read-out: IC 50 neuraminidase, Zanamivir column

CCO [Ethanol]
IC50 ([1]; Human alphaherpesvirus 1, read-out: IC 50 Virucidal): 80 mg/mL (≈ 1740 mM) | IC 50 Virustatic ([2]; Herpes Simplex Virus I): ineffective

Nc1nc2c(ncn2COCCO)c(=O)[nH]1 [Aciclovir]
IC 50 Virucidal [1]: ineffective | IC50 ([2]; Human alphaherpesvirus 1, Herpes Simplex Virus I, read-out: IC 50 Virustatic): 0.0002 mg/mL (≈ 0.000888 mM)

O=C1O[C@H]([C@@H](O)CO)C(O)=C1O [Vitamin C]
Antioxidative capacity, inactivation of superoxide anions [3]: 96.6%

CC(=O)N[C@H]1[C@H]([C@H](O)[C@H](O)CO)OC(C(=O)O)=C[C@@H]1N=C(N)N [Zanamivir]
IC50 [4]: > 200 µM
